Laboratory results: US6335451B1, “Five-membered heterocycles having biphenylsulfonyl substitution, with sulfonylcyanamide side chain, compositions containing them, and methods of using them” (Hoechst Aktiengesellschaft, priority 1997, dated 2002)

What was measured:
[1] = tested on: Na+-dependent Cl−/HCO3− exchanger (NCBE); test: Inhibition of the Na+-dependent Cl−/HCO3− exchanger (NCBE) in human endothelial cells (pHi recovery, BCECF fluorescence, FLIPR); assay type: cell-based; conditions: inhibitor concentration of 10 μM; human endothelial cells (ECV-304); relative to 100% and 0% pHi recovery controls, 50 μM HOE 642 present
Description: Inhibition of the Na^+-dependent Cl^−/HCO3^− exchanger (NCBE) in human endothelial cells
Human endothelial cells (ECV-304) were detached from culture bottles with the aid of trypsin/EDTA buffer (0.05/0.02% in phosphate buffer) and, after centrifugation (100 g, 5 min), taken up in a buffered salt solution (mmol/l: 115 NaCl, 20 NH4Cl, 5 KCl, 1 CaCl2, 1 MgSO4, 20 N-(2-hydroxyethyl)piperazine-N′-2-ethanesulfonic acid (HEPES), 5 glucose and 1 g/l of bovine serum albumin; pH 7.4). This cell suspension was incubated at 37° C. for 20 min with 5 μM BCECF-acetoxymethyl ester. The cells were then washed and resuspended in a sodium- and bicarbonate-free buffer solution (mmol/l: 5 HEPES, 133.8 choline chloride, 4.7 KCl, 1.25 MgCl2, 0.97 K2HPO4, 0.23 KH2PO4, 5 glucose; pH 7.4).
For subsequent fluorescence measurement in an FLIPR (Fluorescent Imaging Plate Reader) 100 μl of this cell suspension having 20,000 cells in each case were pipetted per well into a 96-well microtiter plate and this microtiter plate was centrifuged (100 g, 5 min).
In the FLIPR, 100 μl of buffer solution in each case were then removed from a further pretreated microtiter plate and pipetted into each of the 96 wells of the measurement plate. A bicarbonate- and sodium-containing buffer solution (mmol/l: 5 HEPES, 93.8 NaCl, 40 NaHCO3, 4.7 KCl, 1.25 CaCl2, 1.25 MgCl2, 0.97 Na2HPO4, 0.23 NaH2PO4, 5 glucose; pH 7.4) which contained 50 μM HOE 642 was used for a 100% control, i.e. a recovery of the intracellular pH (pHi) via the NCBE. For a 0% control, i.e. no pHi recovery at all, the bicarbonate-free, sodium-containing buffer solution (mmol/l: 5 HEPES, 133.8 NaCl, 4.7 KCl, 1.25 CaCl2, 1.25 MgCl2, 0.97 Na2HPO4, 0.23 NaH2PO4, 5 glucose; pH 7.4) was employed, to which 50 μM HOE 642 were likewise added. The compounds according to the invention were added to the sodium- and bicarbonate-containing solution in various concentrations.
After addition of the buffer solutions to the dye-loaded, acidified cells in the measurement plate, the rise in the fluorescence intensity which corresponded to a rise in the pHi in each well of the microtiter plate was determined. The kinetics were in this case recorded at 35° C. for a period of 2 minutes.
The increase in the fluorescence intensities for different concentrations of the compounds according to the invention was related to the two controls and from this inhibitory action of the substances was determined.
Residual Activity of the NCBE at an Inhibitor Concentration of 10 μM

melting point | SMILES | Residual activity in % (residual activity of the NCBE) [1]
94 °C (dec.) | CCOC(=O)c1c(SC)nc(CC)n1Cc1ccc(-c2ccccc2S(=O)(=O)NC#N)cc1 [Example 17, Ethyl 2-ethyl-5-methylsulfanyl-3-(2′-cyanoaminosulfonylbiphenyl-4-ylmethyl)-3H-imidazole-4-carboxylate] | 39.1%
169 °C (dec.) | CCOC(=O)c1c(SC)nc(C)n1Cc1ccc(-c2ccccc2S(=O)(=O)NC#N)cc1 [Example 18, Ethyl 2-methyl-5-methylsulfanyl-3-(2′-cyanoaminosulfonylbiphenyl-4-ylmethyl)-3H-imidazole-4-carboxylate] | 45.8%
276 °C (dec.) | CCOC(=O)c1c(SC)nc(C(C)C)n1Cc1ccc(-c2ccccc2S(=O)(=O)NC#N)cc1 [Example 19, Ethyl 2-isopropyl-5-methylsulfanyl-3-(2′-cyanoaminosulfonylbiphenyl-4-ylmethyl)-3H-imidazole-4-carboxylate] | 21.5%
113 °C (dec.) | CCCCc1nc(SC)c(C(=O)OC(C)C)n1Cc1ccc(-c2ccccc2S(=O)(=O)NC#N)cc1 [Example 20, Isopropyl 2-butyl-5-methylsulfanyl-3-(2′-cyanoaminosulfonylbiphenyl-4-ylmethyl)-3H-imidazole-4-carboxylate] | 19.5%
127 °C (dec.) | CCCCc1nc(SC)c(C(=O)OCC)n1Cc1ccc(-c2cc(S(=O)(=O)NC#N)ccc2C)cc1 [Example 21, Ethyl 2-butyl-3-(2′-methyl-5′-cyanoaminosulfonylbiphenyl-4-yl-methyl)-5-methylsulfanyl-3H-imidazole-4-carboxylate] | 42.6%
211 °C | CCCCc1nc(SC)c(C(=O)OCC)n1Cc1ccc(-c2ccc(S(=O)(=O)NC#N)cc2C)cc1 [Example 22, Ethyl 2-butyl-3-(2′-methyl-4′-cyanoaminosulfonylbiphenyl-4-yl-methyl)-5-methylsulfanyl-3H-imidazole-4-carboxylate] | 34.2%
160 °C (dec.) | CCCCc1nc(SC)c(C(=O)OCC)n1Cc1cccc(-c2cc(S(=O)(=O)NC#N)ccc2C)c1 [Example 24, Ethyl 2-butyl-3-(2′-methyl-5′-cyanoaminosulfonylbiphenyl-3-yl-methyl)-5-methylsulfanyl-3H-imidazole-4-carboxylate] | 29.2%
115 °C (dec.) | CCCCc1nc(SC)c(C(=O)OCC)n1Cc1cccc(-c2ccc(S(=O)(=O)NC#N)cc2C)c1 [Example 25, Ethyl 2-butyl-3-(2′-methyl-4′-cyanoaminosulfonylbiphenyl-3-yl-methyl)-5-methylsulfanyl-3H-imidazole-4-carboxylate] | 70.8%
122 °C (dec.) | CCCCc1nc(SC)c(C(=O)OCC)n1Cc1cccc(-c2ccc(S(=O)(=O)NC#N)cc2C(F)(F)F)c1 [Example 26, Ethyl 2-butyl-5-methylsulfanyl-3-(4′-cyanoaminosulfonyl-2′-trifluoromethylbiphenyl-3-ylmethyl)-3H-imidazole-4-carboxylate] | 65.3%
160 to 187 °C | N#CNS(=O)(=O)c1ccccc1-c1ccc(Cn2c(-c3ccc(Cl)cc3)nc(Cl)c2C=O)cc1 [Example 36, 4′-[4-Chloro-5-formyl-2-(4-chlorphenyl)-imidazole-1-ylmethyl]-biphenyl-2-sulfonylcyanamide] | 7.8%
110 to 126 °C | COc1ccc(-c2nc(Cl)c(C=O)n2Cc2ccc(-c3ccccc3S(=O)(=O)NC#N)cc2)cc1 [Example 37, 4′-[4-Chloro-5-formyl-2-(4-methoxyphenyl)-imidazole-1-ylmethyl]-biphenyl-2-sulfonylcyanamide] | 16.8%
164 to 178 °C | N#CNS(=O)(=O)c1ccccc1-c1ccc(Cn2c(-c3c(F)cccc3F)nc(Cl)c2C=O)cc1 [Example 38, 4′-[4-Chloro-5-formyl-2-(2,6-difluorphenyl)-imidazole-1-ylmethyl]-biphenyl-2-sulfonylcyanamide] | 8.6%
